Results as given in PubChem BioAssay (NCI).
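Step 1: Grow cells in 96-well plates. Step 2: Expose to compound for 48 hours at 5 concentrations. Step 3: Interpolate endpoints linearly; if unreached, use highest concentration. GI50 = concentration required for 50% inhibition of growth. Definition used: TGI = concentration required for complete inhibition of growth.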

What was measured:
Experiment in all cases: NCI tumour cell line growth inhibition, 48 h
[1] = system: KM20L2 colon
[2] = system: SNB-78 CNS
[3] = system: DMS 114 small cell lung
[4] = system: DMS 273 small cell lung
[5] = system: RXF-631 renal
[6] = system: DLD-1 colon
[7] = system: XF 498 CNS
[8] = system: HOP-18 NSCLC
[9] = system: MDA-N
[10] = system: P388 leukemia
[11] = system: SN12K1 renal
[12] = system: P388/ADR leukemia

Compound	TGI [1] [µM]	TGI [2] [µM]	TGI [3] [µM]	TGI [4] [µM]	TGI [5] [µM]	TGI [6] [µM]	TGI [7] [µM]	GI50 [8] [µM]	TGI [8] [µM]	GI50 [1] [µM]	GI50 [2] [µM]	GI50 [4] [µM]	GI50 [6] [µM]	TGI [9] [µM]	TGI [10] [µM]	TGI [11] [µM]	TGI [12] [µM]
COC(=O)C(=O)C(C#N)c1nc2ccccc2s1 (stereo unspecified)	> 100	> 100	> 100	> 100	> 100	> 100	> 100										
CN(C)CCC(N)(P(=O)([O-])[O-])P(=O)([O-])[O-].N.N.[Pt+2]	> 100	> 100		> 100		> 100		> 100	> 100	> 100	> 100	> 100	> 100				
Cc1c(C(Cc2ccccc2N(C)C(=O)/C=C\C(=O)O)c2c[nH]c3ccccc23)c2ccccc2n1C (stereo unspecified)	32.7	53.8	27.5	32.7	27.9	35.2	36.9										
Cc1cc(N(CCC#N)CCC#N)ccc1/C=C(\NC(=O)/C=C/c1ccccc1)C(=O)N=[N+]=[N-]	> 100	> 100	> 100	> 100		> 100	69.9										
CCN(CC)CC(=O)NC1c2ccccc2Oc2ccccc21	> 100	> 100	> 100	> 100		> 100	> 100										
C=C(CO)C(=O)OC1CC(=C)C2CC(O)C(C)C2C2OC(=O)C(=C)C12 (stereo unspecified)														38			
CC(C)(CN1CCCCC1)C(=O)/C=C/c1ccccc1	28.1	80.9	42	36.5	59	54.1	29.9										
O=C(/C=C/c1ccccc1)NC1C=Nc2ccc([N+](=O)[O-])cc2NC1=O (stereo unspecified)	> 100	> 100	> 100	> 100		> 100	> 100										
C=CC1(C)CCC2C(=CCC3C2(C)CC(O)C(O)C3(C)COC2OC(CO)C(O)C(O)C2O)C1 (stereo unspecified)														> 100			
CS(=O)(=O)OCCN(CCOS(C)(=O)=O)c1ccc(C=Nc2ccc(-c3csc(COc4ccccc4)n3)cc2)cc1	14.7	66.4	23.4	14.5		29.3	6.85		19.2					31			
CN(C)CC1CC/C(=C\c2ccc(Cl)c(Cl)c2)C1=O (stereo unspecified)	> 50.2	> 78.8	> 72.7	> 51.9		50.1	> 65.4		> 100								
CC(=O)N1C/C(=C\c2ccccc2)C(=O)/C(=C/c2ccccc2)C1	39.5	53.4		12.1		25.8	49.3		32.9								
O=C(CCc1n[nH]c(=S)o1)Nc1cc(Cl)ccc1Cl	> 100	> 100		36.1		> 100			> 100								
Cc1c2cnccc2c(C)c2c1c1ccccc1n2CCOC(=O)c1ccccc1	50.5	85.4	30.6	18		49.3	5.64		> 100					> 100	41.4	26.6	35.1
O=P1(NCCCl)OCCCN1CCCl (stereo unspecified)	434	451	438	410		431	436		124					> 500	293	430	315
NC(N)NCCCc1cn2c(n1)C1CCCN1C(=O)C2Cc1ccccc1 (stereo unspecified)	> 100	> 100	> 100	> 100	> 100	> 100	> 100										

Compound	TGI [1] [µM]	TGI [2] [µM]	TGI [3] [µM]	TGI [4] [µM]	TGI [5] [µM]	TGI [6] [µM]	TGI [7] [µM]	GI50 [8] [µM]	TGI [8] [µM]	GI50 [1] [µM]	GI50 [2] [µM]	GI50 [4] [µM]	GI50 [6] [µM]	TGI [9] [µM]	TGI [10] [µM]	TGI [11] [µM]	TGI [12] [µM]
N#CC(C(=O)CCCC(=O)Nc1ccccc1[N+](=O)[O-])c1c(Cl)cccc1Cl (stereo unspecified)	> 100	> 100	> 100	> 100	> 100	> 100	> 100		> 100								
CC1CCCCCC(=O)c2c(O)cc(O)cc2CC(=O)O1 (stereo unspecified)														> 100			
CC(=O)OCC1C(=O)OCC1C(=O)N1Cc2cc3ccccc3nc2C1 (stereo unspecified)	11		29.8	17.8		3.37	4.51		10.2					13.1			
CC(=O)C1(O)CC2(c3ccccc3)C(=O)C1(c1ccccc1)C(c1ccccc1)=C2c1ccccc1 (stereo unspecified)	> 100	> 100	> 100	> 100	> 100	> 100	> 100										
COc1ccc2c(c1)[C@@H](NC(C)=O)CCc1cc(OC)c(OC)c(OC)c1-2		> 100	0.366	> 100		> 100	16.2		> 100					< 0.0204			
O=C1C2C3CC4C5C3C1C5C1(SCCS1)C42 (stereo unspecified)	> 100	> 100	> 100	> 100		> 100			> 100								
O=C(O)/C=C/c1ccc(O)c(O)c1	> 100	> 100	> 100	> 100	> 100	> 100			> 100								
O=S1OC(c2ccccc2)(c2ccccc2)C(c2ccccc2)(c2ccccc2)O1	> 100	> 100	> 100	> 100	> 100	> 100	> 100		> 100								
Cn1cc(C2NC(=O)c3ccccc3N2)c2ccccc21 (stereo unspecified)														0.591			
C[N+]1([O-])C2CCC1CC(OC(=O)C(CO)c1ccccc1)C2 (stereo unspecified)														> 100			
NC1=C(O)c2cccc3cccc(c23)C1=O	> 100	> 100	> 100	> 100	> 100	> 100			> 100								
Cc1ccc(S(=O)c2ccccc2[N+](=O)[O-])cc1 (stereo unspecified)		> 100	> 100	> 100	> 100	> 100											
O=c1c2ccccc2nc(-c2cccc([N+](=O)[O-])c2)n1O														> 100			
COc1ccc(C(=O)C(C(=O)CCC(=O)Nc2ccc(Cl)c(Cl)c2)c2ccc(OC)cc2)cc1 (stereo unspecified)	> 100	> 100	> 100	> 100	> 100	> 100	> 100		> 100								
C/C(CN1C(=O)c2ccccc2C1=O)=N\NS(=O)(=O)c1ccc2ccccc2c1	> 100	> 100	> 100	> 100		> 100			> 100								
